Here are results for six compounds from US7271158B2, “Treatment of rumen acidosis with α-amylase inhibitors” (Pfizer Inc., priority 2000, dated 2007).

A word on the IC50: it is the midpoint of a concentration-inhibition curve.

Assay [1] addresses rumen fluid supernatant amylases. Briefly: Rumen bacterial amylase assay, protocol 1 (Sigma amylase kit 577). The format is biochemical, rumen bacteria, Hereford×Friesian calves. As to conditions: for IC50: rumen fluid amylase screen using Sigma kit 577. The source says:
Rumen Bacterial Amylase Assay—Protocol 1
The enzymatic reactions involved in the assay are as follows:
5 ET-G7PNP→(α-amylase)→2 ET-G5+2 G2PNP+2 ET-G4+2 G3PNP+ET-G3+G4-PNP2 G2PNP+2 G3 PNP→(α-glucosidase)→4 PNP +10 glucose
α-Amylase hydrolyses 4,6-ethylidene-G7-PNP (ET-G7 PNP) to G2, G3 and G4 PNP fragments. α-Glucosidase (α-1,4-glucan glucohydrolase EC 3.2.1.3) hydrolyses G2PNP and G3PNP to yield p-nitrophenol and glucose. Five moles of substrate (ET-G7PNP) is hydrolysed to yield 4 moles of p-nitrophenol p-Nitrophenol absorbs light as 405 nm, and following a two minute lag period the rate of increase in absorbance at 405 nm is directly proportional to α-amylase activity in the well.
Rumen fluid was collected from 4-month-old Hereford×Friesian calves (125–135 kg, supplied by Cwmnant Calves Ltd. Cwmnant. Tregaron. Ceredigion) fed on diet GH 313. The rumen fluid was collected from slaughtered calves into pre-warmed vacuum flasks, as soon as possible after euthanasia. It was then filtered through a double layer of absorbent gauze (Absorbent gauze BP, GAUZ 4 from Robert Bailey plc, Stockport) to remove hay and feed particles. The liquid was centrifuged at a relative centrifugal force of 23,300 for 60 minutes, and the supernatant decanted, avoiding contamination from the loose top layer of the pellet by careful pouring. The supernatant was then aliquoted into 50 ml plastic tubes and frozen at […]. When required for use in an assay the rumen fluid supernatant was thawed by standing the tubes in cold water. Test compounds or controls were dispensed into the 96-well assay plate at 4 μl/well. 100 μl per well of Sigma amylase reagent 577 (made up to half the volume described in the instructions (i.e. 10 ml for a 577-20 vial)) was then added to each well, followed by 100 μl per well of rumen fluid supernatant. A T=0 reading at 405 nm was taken at this stage using an Anthos plate reader. The plate was then incubated at room temperature or 37° C. until an optical density window of approximately 1.000U was seen (typically one hour at 37° C. or three hours at room temperature). A second reading was taken at 405 nm, and the first reading subtracted from it. Active compounds cause a reduction in the optical density readings when compared to the control without the agent being tested.

Assay [2] deals with bacterial glucosidase activity from bovine rumen fluid cell suspension. Briefly: Rumen fluid glucosidase assay. Format: biochemical, bovine rumen bacteria. As to conditions: rumen fluid glucosidase screen, maltose substrate. As to the method: Rumen Fluid Glucosidase Assay Protocol This assay is used to determine IC50 values for inhibitors of bacterial glucosidase activity from bovine rumen fluid cell suspension (RFCS) using a colorimetric assay. The assay measures conversion of maltose into glucose. Rumen fluid cells are incubated with maltose in the presence of inhibitors, and the amount of glucose produced is assessed using a red colourimetric endpoint. The higher the level of inhibition the lower the glucose produced and the less red colour produced. The plates are read at 450 nm. Main reaction: • Maltose+glucosidase→glucose Glucose assay • Glucose+ATP→[…] and ADP (Hexokinase and Mg^2+) • […] and NADP→6-phosphogluconate (6-PG) and NADPH • NADPH+phenazine methosulfate ([…] (iodonitrotetrazolium chloride)→[…] is deep red coloured. […] The rumen fluid was collected into pre-warmed vacuum flasks. It was then filtered through a double layer of absorbent gauze (Absorbent gauze BP, GAUZ 4 from Robert Bailey plc, Stockport) to remove hay and feed particles. The liquid was centrifuged at a relative centrifugal force of 650 for 15 minutes to remove food particles and protozoa. The supernatant was decanted into fresh tubes and centrifuged at a relative centrifugal force of 23,300 for 60 minutes. The supernatant and the loose top layer of the pellet were discarded. The pellet was resuspended in PBS at 1:8 of original volume i.e. 50 ml of PBS for the pellet from 400 ml of rumen fluid, and frozen at -20° C. When required for use the cells were thawed by standing the tube in cold water, and then diluted to […] of cells/well (45 μl/ml). Test compounds or controls were dispensed into the 96-well assay plate at 2 μl/well, followed by 50 μl per well of 10 mM maltose and 50 μl/well of rumen fluid cell suspension. The plate was incubated at 37° C. for 1 hour. Sigma glucose detection kit […] was reconstituted by addition of 17 ml of Millipore water and 4 ml of colour reagent to each vial. 100 μl of this solution was added per well and the plate returned to the 37° C. incubator for 45 minutes. The plate was then read at 450 nm. Active compounds cause a reduction in the optical density readings when compared to the no-inhibitor control wells.

The target in assay [3] is rumen fluid supernatant amylases. Put plainly: Rumen bacterial amylase assay, protocol 2 (amylose azure). As to conditions: read-out: Average IC50, rumen fluid amylase screen.
In assay [4] the test system is rumen fluid fermentation (RUSITEC chronic acidosis model). Put plainly: RUSITEC rumen simulation, chronic acidosis model: Example 8 and acarbose. As to conditions: for proportional increase in butyrate production: treatment period vs control period (no treatment: 1%); for change in total VFA production: vs preceding control period (no treatment: −11%). The format is cell-based, cow. As to the method: RUSITEC Result using Example 8 and Acarbose
Daily maintenance procedures as previously described for Acarbose.
Rumen fluid donor cow—Fed GH313Pellets plus barley straw.
Daily Feed—30 g GH313 pellets plus 2.5 g chopped barley straw.
Acarbose: 1 tablet added to each bag to give 100 mg/vessel/d
Example 8: Eight×57 mg pre-weighed samples stored in fridge in […]. On the day before the feed bags were to be placed in RUSITEC, a 57 mg sample was dissolved in 2.28 ml buffer (25 mg/ml). 0.21 ml of this solution was added to 1.9 ml buffer to give a 2.5 mg/ml solution. 1 ml of each solution was added to a prepared feed bag to give 25 and 2.5 mg/vessel/d. and dried overnight at room temperature.

The structures appear in SMILES notation.

As for `C[C@H]1O[C@H](O[C@@H]2[C@H](O)[C@H](O)[C@@H](O[C@@H]3[C@H](O)[C@@H](O)[C@@H](O[C@@H]4[C@H](O)[C@H](O)[C@@H](O[C@H]5O[C@@H](CO)[C@H](O)[C@H](O)[C@H]5O)O[C@@H]4CO)O[C@@H]3CO)O[C@H]2CO)[C@H](O)[C@@H](O)[C@@H]1N[C@H]1C=C(CO)[C@@H](O[C@H]2O[C@H](CO)[C@H](O[C@H]3O[C@H](C)[C@@H](N[C@H]4C=C(CO)[C@@H](O)[C@H](O)[C@H]4O)[C@H](O)[C@H]3O)[C@H](O)[C@H]2O)[C@H](O)[C@H]1O` (stereo in doubt) [Trestatin A], the IC50 in assay [1] is 0.17 µM; in assay [2], 33.6 µM; in assay [3], 0.79 µM.
As to `C[C@H]1O[C@H](O[C@@H]2[C@H](O)[C@@H](O)[C@@H](O[C@@H]3[C@H](O)[C@@H](O)[C@@H](O[C@@H]4[C@H](O)[C@H](O)[C@@H](O[C@H]5O[C@H](CO)[C@H](O)[C@H](O)[C@H]5O)O[C@@H]4CO)O[C@@H]3CO)O[C@H]2CO)[C@@H](O)[C@@H](O)[C@@H]1N[C@@H]1C=C(CO)[C@@H](O)[C@@H](O)[C@@H]1O` (stereo in doubt) [Trestatin B], the IC50 in assay [1] came to 2.89 µM; in assay [2], 4.1 µM.
For the compound `CC1OC(OC2C(CO)OC(OC3C(CO)OC(OC4C(CO)OC(OC5C(CO)OC(O)C(O)C5O)C(O)C4O)C(O)C3O)C(O)C2O)C(O)C(O)C1NC1C=C(CO)C(O)C(O)C1O` (centres unmarked) [Example 7], in assay [1], the “effect in the amylase screen” value is “inhibiting effect”. This compound also showed an IC50 in assay [2] of 6.38 µM.
In the case of `CC1OC(OC2C(CO)OC(OC3C(CO)=CC(NC4C(C)OC(OC5C(CO)OC(OC6C(CO)OC(OC7C(CO)OC(OC8C(CO)OC(O)C(O)C8O)C(O)C7O)C(O)C6O)C(O)C5O)C(O)C4O)C(O)C3O)C(O)C2O)C(O)C(O)C1NC1C=C(CO)C(O)C(O)C1O` (centres unmarked) [Example 8], the half-maximal inhibitory concentration (IC50) in assay [1] is 0.44 µM; in assay [2] it was 13.1 µM; in assay [3], 9.45 µM. For the same compound, in assay [4] (0.02 mM), the “increase in mean daily pH” value was 0.3 units. The “proportional increase in butyrate production” value in assay [4] (2.5 mg per vessel per day) is on record as 18%; in assay [4] (25 mg per vessel per day), 20%. For the same compound, the figures for the “change in total VFA production” value in assay [4] (2.5 mg per vessel per day) and in assay [4] (25 mg per vessel per day) were −1% and −8%, respectively.
`CC1OC(OC2C(CO)OC(OC3C(CO)=CC(NC4C(C)OC(OC5C(CO)OC(OC6C(CO)OC(OC7C(CO)OC(O)C(O)C7O)C(O)C6O)C(O)C5O)C(O)C4O)C(O)C3O)C(O)C2O)C(O)C(O)C1NC1C=C(CO)C(O)C(O)C1O` (centres unmarked) [Example V-1532]: the values for the IC50 in assay [1], in assay [2] and in assay [3] were 0.57 µM, 65.5 µM and 2.07 µM, respectively.
For `C[C@H]1O[C@H](O[C@H]2[C@H](O)[C@@H](O)[C@@H](O[C@H]3[C@H](O)[C@@H](O)[C@@H](O[C@H]4[C@H](O)[C@@H](O)[C@@H](O[C@H]5O[C@H](CO)[C@@H](O)[C@H](O)[C@H]5O)O[C@@H]4CO)O[C@@H]3CO)O[C@@H]2CO)[C@H](O)[C@@H](O)[C@@H]1N[C@H]1C=C(CO)[C@@H](O[C@H]2O[C@H](CO)[C@@H](O[C@H]3O[C@H](C)[C@@H](NC4C=C(CO)[C@@H](O[C@H]5O[C@H](CO)[C@@H](O[C@H]6O[C@H](C)[C@@H](NC7C=C(CO)[C@@H](O)[C@H](O)[C@H]7O)[C@H](O)[C@H]6O)[C@H](O)[C@H]5O)[C@H](O)[C@H]4O)[C@H](O)[C@H]3O)[C@H](O)[C@H]2O)[C@H](O)[C@H]1O` (some centres unmarked) [Trestatin C], the IC50 is 0.09 µM in assay [1] and 148 µM in assay [2].
